{"source": "patent US20230045629A1", "about": "“TREATMENT OF PROGRESSIVE SUPRANUCLEAR PALSY” (NATIONAL UNIVERSITY CORPORATION TOKAI NATIONAL HIGHER …, priority 2020, published 2023)", "tested_on": "AT8-positive phosphorylated tau", "test": "Actin polymerization inhibitor on phosphorylated tau in primary cortical neurons from fetal mouse brain electroporated in utero with FLNA, fluorescent immunostaining", "type": "cell-based", "details": "wild-type FLNA introduced at E14, primary cortical neurons collected at E15, 2 DIV; compared with 0.1% DMSO (control)", "description": "FIG. 17-2: Continued from FIG. 17. (b): Each plasmid was introduced into a fetal mouse brain in a mouse at 14 days of gestation (E14) by in utero electroporation, and primary cortical neurons were collected at 15 days of gestation (E15), followed by 2-day cell culture (2 DIV) and then fluorescent immunostaining. At the time of administration of 0.1% DMSO (control), the expression level of AT8-positive phosphorylated tau was increased because of wild-type FLNA (FLNA^WT) but not at the time of administration of an actin polymerization inhibitor cytochalasin D (CytoD). The multiple asterisks “***” indicate a Tukey's test P value of less than 0.001.\nThe FLNA gene was induced into the brain of a fetal mouse in a mouse at 14 days of gestation (E14)."}
{"molecule": "C=C1[C@@H](C)[C@H]2[C@H](Cc3ccccc3)NC(=O)[C@]23[C@H](OC(C)=O)/C=C/[C@@](C)(O)C(=O)[C@@H](C)C/C=C/[C@H]3[C@@H]1O", "note": "[cytochalasin D (CytoD)]", "values": [{"measurement": "expression level of AT8-positive phosphorylated tau", "value": "did not cause an increase"}]}
